Data taken from patent US10953012B2, “Heterocyclic compounds for the inhibition of pask” (BioEnergenix LLC, priority 2011, dated 2021).

Experiments:
hPASK (kinase domain) = hPASK (kinase domain) (Homo sapiens (Human), UniProt Q96RG2); test: PAS Kinase Luminescence Assay (Kinase-Glo), kinase domain; type: biochemical
Experimental: (§1) PAS Kinase Luminescence Assay
(§2) One assay for purified hPASK activity utilizes the Kinase-Glo Luminescent Kinase Assay (Promega), which quantifies the amount of ATP remaining in solution following kinase reaction. The assay is carried out in a 96-well plate format and is performed by adding a volume of Kinase-Glo Reagent (Promega, catalog #V3771) equal to the volume of solution in the well of a completed kinase reaction. Kinase-Glo reagent contains Luciferase and its substrate. After addition to a kinase reaction it allows to measure luminescence. The amount of ATP left in solution at the time of Kinase-Glo Plus addition is directly proportional to the luminescence that is measured in each well, and inversely correlated with kinase activity.
(§3) Purified hPASK from insect cells (0.02 μg) is added to a 50 μL reaction mix containing 40 mM HEPES (pH 7.0), 100 mM KCl, 5 mM MgCl2, 1 mM DTT and 1 μg of MBP protein. Inhibitory compounds are then added and the mixture is incubated for 10 min at 25° C. before adding 5 μL of ATP (at desired concentration). The reaction is allowed to proceed at 25° C. for 1 hour before adding 50 μL of Kinase-Glo reagent. The luminescence is measured as soon as 10 minutes after Kinase-Glo reagent is added.
(§4) Results are shown below in Table 1, where NT means not tested.

hPASK (full length) = hPASK (full length) (Homo sapiens (Human), UniProt Q96RG2); test: PAS Kinase Luminescence Assay (Kinase-Glo), full length; type: biochemical
Sequence of hPASK (full length) (Q96RG2 whole entry): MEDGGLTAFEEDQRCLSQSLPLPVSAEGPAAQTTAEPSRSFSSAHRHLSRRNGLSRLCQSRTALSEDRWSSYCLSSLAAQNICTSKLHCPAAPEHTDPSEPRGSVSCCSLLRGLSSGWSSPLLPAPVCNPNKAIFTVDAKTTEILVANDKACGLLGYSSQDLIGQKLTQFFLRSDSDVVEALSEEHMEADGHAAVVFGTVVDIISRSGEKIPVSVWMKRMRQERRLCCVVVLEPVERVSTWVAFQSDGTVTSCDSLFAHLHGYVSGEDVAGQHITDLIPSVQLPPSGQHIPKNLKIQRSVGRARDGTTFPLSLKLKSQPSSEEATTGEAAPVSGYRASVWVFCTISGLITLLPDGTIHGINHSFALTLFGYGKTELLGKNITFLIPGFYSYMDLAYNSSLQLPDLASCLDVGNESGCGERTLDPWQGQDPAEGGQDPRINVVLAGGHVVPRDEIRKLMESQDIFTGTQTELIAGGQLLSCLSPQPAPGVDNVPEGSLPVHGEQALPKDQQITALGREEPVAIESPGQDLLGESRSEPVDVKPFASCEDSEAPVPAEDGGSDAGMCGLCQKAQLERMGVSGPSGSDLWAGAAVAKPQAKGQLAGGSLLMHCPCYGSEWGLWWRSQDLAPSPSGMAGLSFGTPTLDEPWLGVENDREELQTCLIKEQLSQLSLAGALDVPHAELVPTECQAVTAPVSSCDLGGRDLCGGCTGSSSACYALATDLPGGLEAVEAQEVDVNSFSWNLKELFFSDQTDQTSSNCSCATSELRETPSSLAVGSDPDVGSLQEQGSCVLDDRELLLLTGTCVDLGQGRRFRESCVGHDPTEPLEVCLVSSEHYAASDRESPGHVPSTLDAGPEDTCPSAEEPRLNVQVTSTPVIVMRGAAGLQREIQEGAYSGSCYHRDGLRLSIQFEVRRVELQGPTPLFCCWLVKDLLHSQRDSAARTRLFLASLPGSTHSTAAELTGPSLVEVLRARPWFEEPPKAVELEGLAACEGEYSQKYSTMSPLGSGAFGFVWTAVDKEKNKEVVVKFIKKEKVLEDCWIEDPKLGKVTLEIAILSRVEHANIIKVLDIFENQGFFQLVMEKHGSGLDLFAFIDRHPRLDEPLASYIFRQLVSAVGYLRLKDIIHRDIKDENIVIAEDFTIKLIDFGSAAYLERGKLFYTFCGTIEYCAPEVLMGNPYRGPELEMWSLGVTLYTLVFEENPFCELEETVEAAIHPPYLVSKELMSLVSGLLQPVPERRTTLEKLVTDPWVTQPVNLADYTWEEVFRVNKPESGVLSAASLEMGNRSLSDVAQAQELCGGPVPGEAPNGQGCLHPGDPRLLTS
Experimental: as §1, §2, §3, §4

CK2a2 = CK2a2 (Homo sapiens (Human), UniProt P19784); test: Biochemical Assay for CK2 Activity; settings: 33P-ATP radiochemical assay; read-out: IC50 CK2 a2
Sequence of CK2a2 (P19784 whole entry): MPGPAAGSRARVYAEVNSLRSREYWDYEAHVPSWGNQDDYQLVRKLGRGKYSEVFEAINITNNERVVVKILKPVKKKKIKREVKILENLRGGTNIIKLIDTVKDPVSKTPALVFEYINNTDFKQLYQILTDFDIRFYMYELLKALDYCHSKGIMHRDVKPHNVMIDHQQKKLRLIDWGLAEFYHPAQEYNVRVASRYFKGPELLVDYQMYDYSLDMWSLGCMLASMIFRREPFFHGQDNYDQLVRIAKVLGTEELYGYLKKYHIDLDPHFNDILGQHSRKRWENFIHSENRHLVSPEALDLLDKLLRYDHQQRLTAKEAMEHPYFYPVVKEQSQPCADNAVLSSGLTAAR
Outline: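 GST-tagged full-length human CK2a2 from insect cells (1.2 nM) with 20 μM RRRDDDSDDD peptide, in pH 7.5 HEPES buffer with MgCl2, DTT and 1% DMSO. Reactions started with ³³P-ATP were run for 120 min at room temperature. Substrate phosphorylation was measured by P81 phosphocellulose filter binding and scintillation counting.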

PASK = PASK (UniProt #Q96RG2; residues 879-1323) (Homo sapiens (Human), UniProt Q96RG2); test: PASK ATP Radiochemical Assay; type: biochemical; settings: 33P-ATP radiochemical assay; read-out: IC50 Kinase Domain
Sequence of PASK (Q96RG2 879-1323): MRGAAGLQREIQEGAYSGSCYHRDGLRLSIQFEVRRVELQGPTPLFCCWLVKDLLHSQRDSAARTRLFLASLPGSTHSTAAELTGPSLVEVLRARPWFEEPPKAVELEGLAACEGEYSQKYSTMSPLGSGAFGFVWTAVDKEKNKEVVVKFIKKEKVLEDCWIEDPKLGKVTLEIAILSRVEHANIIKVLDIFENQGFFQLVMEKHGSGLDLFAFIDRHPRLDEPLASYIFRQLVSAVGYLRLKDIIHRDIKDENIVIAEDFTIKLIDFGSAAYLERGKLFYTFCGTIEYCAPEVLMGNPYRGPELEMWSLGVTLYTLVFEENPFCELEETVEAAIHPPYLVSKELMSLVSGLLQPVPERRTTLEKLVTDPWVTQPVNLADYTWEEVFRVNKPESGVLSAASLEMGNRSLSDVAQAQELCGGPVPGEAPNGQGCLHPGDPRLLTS
Outline: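 Radiometric kinase assay: GST-tagged PASK (5 nM final) from insect cells with Myelin Basic Protein (20 μM) in HEPES pH 7.5 buffer, 1% DMSO; reaction started with ^33P-ATP, 120 min at room temperature. Substrate phosphorylation captured on P81 paper and read by scintillation counting.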

Sequence of hPASK (kinase domain) (Q96RG2 999-1251): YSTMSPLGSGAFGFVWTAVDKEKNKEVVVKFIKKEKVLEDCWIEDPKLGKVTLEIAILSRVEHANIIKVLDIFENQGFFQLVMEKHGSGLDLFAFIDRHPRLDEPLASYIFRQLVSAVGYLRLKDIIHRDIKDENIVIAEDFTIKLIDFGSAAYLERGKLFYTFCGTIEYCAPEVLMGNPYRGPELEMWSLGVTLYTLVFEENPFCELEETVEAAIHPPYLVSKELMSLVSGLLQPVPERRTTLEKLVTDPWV

Structure (SMILES) | IC50 (hPASK (kinase domain)) | IC50 (hPASK (full length)) | IC50 (CK2a2) | IC50 (PASK)
Cc1nn2c(=O)cc(-c3ccc([N+](=O)[O-])cc3)[nH]c2c1-c1ccc(Cl)cc1 [Example 1, 3-(4-Chloro-phenyl)-2-methyl-5-(4-nitro-phenyl)-4H-pyrazolo[1,5-a]pyrimidin-7-one] | ≤ 10 µM | ≤ 10 µM | – | –
Cc1cc(=O)n2nc(-c3ccc(Cl)cc3)cc2[nH]1 [Example 2, 2-(4-Chloro-phenyl)-5-methyl-4H-pyrazolo[1,5-a]pyrimidin-7-one] | ≥ 10 µM | ≤ 10 µM | – | –
Cc1[nH]c2c(-c3ccc(Cl)cc3)cnn2c(=O)c1Cc1ccccc1 [Example 3, 6-Benzyl-3-(4-chloro-phenyl)-5-methyl-4H-pyrazolo[1,5-a]pyrimidin-7-one] | ≤ 10 µM | ≤ 10 µM | – | –
COc1ccc(-c2c(Cc3ccccc3)nn3c(=O)cc(-c4ccccc4)[nH]c23)cc1 [Example 5, 2-Benzyl-3-(4-methoxy-phenyl)-5-phenyl-4H-pyrazolo[1,5-a]pyrimidin-7-one] | ≤ 10 µM | ≥ 10 µM | – | –
COc1ccc(-c2c(C)nn3c(=O)cc(-c4ccccc4)[nH]c23)cc1 [Example 6, 3-(4-Methoxy-phenyl)-2-methyl-5-phenyl-4H-pyrazolo[1,5-a]pyrimidin-7-one] | ≤ 10 µM | ≥ 10 µM | – | –
O=c1cc(-c2ccccc2)[nH]c2c(-c3ccccc3)c(Cc3ccccc3)nn12 [Example 7, 2-Benzyl-3,5-diphenyl-4H-pyrazolo[1,5-a]pyrimidin-7-one] | ≤ 10 µM | ≥ 10 µM | – | –
Cc1nn2c(=O)cc(-c3ccccc3)[nH]c2c1-c1ccc(Cl)cc1 [Example 8, 3-(4-Chloro-phenyl)-2-methyl-5-phenyl-4H-pyrazolo[1,5-a]pyrimidin-7-one] | ≤ 10 µM | ≤ 10 µM | – | –
O=c1cc(-c2ccc([N+](=O)[O-])cc2)[nH]c2c(-c3ccc(Cl)cc3)c(Cc3ccccc3)nn12 [Example 9, 2-Benzyl-3-(4-chloro-phenyl)-5-(4-nitro-phenyl)-4H-pyrazolo[1,5-a]pyrimidin-7-one] | ≤ 10 µM | ≤ 10 µM | – | –
O=c1cc(-c2ccccc2)[nH]c2c(-c3ccc(Cl)cc3)c(Cc3ccccc3)nn12 [Example 10, 2-Benzyl-3-(4-chloro-phenyl)-5-phenyl-4H-pyrazolo[1,5-a]pyrimidin-7-one] | ≥ 10 µM | ≥ 10 µM | – | –
O=c1cc(-c2ccccc2)[nH]c2c(-c3cccc4ccccc34)c(Cc3ccccc3)nn12 [Example 11, 2-Benzyl-3-naphthalen-1-yl-5-phenyl-4H-pyrazolo[1,5-a]pyrimidin-7-one] | ≥ 10 µM | ≥ 10 µM | – | –
COc1ccc(Cc2nn3c(=O)cc(-c4ccccc4)[nH]c3c2-c2ccccc2)cc1 [Example 12, 2-(4-Methoxy-benzyl)-3,5-diphenyl-4H-pyrazolo[1,5-a]pyrimidin-7-one] | ≥ 10 µM | ≥ 10 µM | – | –
Cc1nn2c(=O)c(C#N)c(-c3ccccc3)[nH]c2c1-c1ccccc1 [Example 13, 2-Methyl-7-oxo-3,5-diphenyl-4,7-dihydro-pyrazolo[1,5-a]pyrimidine-6-carbonitrile] | ≤ 10 µM | ≥ 10 µM | – | –
COc1ccc(-c2cc(=O)n3nc(C)c(-c4ccccc4)c3[nH]2)cc1 [Example 14, 5-(4-Methoxy-phenyl)-2-methyl-3-phenyl-4H-pyrazolo[1,5-a]pyrimidin-7-one] | ≤ 10 µM | ≤ 10 µM | – | –
Cc1nn2c(=O)cc(-c3ccccc3)[nH]c2c1-c1ccc(F)cc1 [Example 15, 3-(4-Fluoro-phenyl)-2-methyl-5-phenyl-4H-pyrazolo[1,5-a]pyrimidin-7-one] | ≥ 10 µM | ≥ 10 µM | – | –
COc1ccccc1-c1cc(=O)n2nc(C)c(-c3ccccc3)c2[nH]1 [Example 16, 5-(2-Methoxy-phenyl)-2-methyl-3-phenyl-4H-pyrazolo[1,5-a]pyrimidin-7-one] | ≤ 10 µM | ≤ 10 µM | – | –
Cc1nn2c(=O)cc(-c3ccc(Cl)cc3)[nH]c2c1-c1ccccc1 [Example 17, 5-(4-Chloro-phenyl)-2-methyl-3-phenyl-4H-pyrazolo[1,5-a]pyrimidin-7-one] | ≤ 10 µM | ≤ 10 µM | – | –
CCCc1cc(=O)n2nc(Cc3ccccc3)c(-c3ccc(Cl)cc3)c2[nH]1 [Example 18, 2-Benzyl-3-(4-chloro-phenyl)-5-propyl-4H-pyrazolo[1,5-a]pyrimidin-7-one] | ≥ 10 µM | ≥ 10 µM | – | –

Structure (SMILES) | IC50 (hPASK (kinase domain)) | IC50 (hPASK (full length)) | IC50 (CK2a2) | IC50 (PASK)
COCc1cc(=O)n2nc(Cc3ccccc3)c(-c3ccc(OC)cc3)c2[nH]1 [Example 19, 2-Benzyl-5-methoxymethyl-3-(4-methoxy-phenyl)-4H-pyrazolo[1,5-a]pyrimidin-7-one] | ≥ 10 µM | ≥ 10 µM | – | –
O=c1cc(Cc2ccccc2)[nH]c2c(-c3ccccc3)c(Cc3ccccc3)nn12 [Example 21, 2,5-Dibenzyl-3-phenyl-4H-pyrazolo[1,5-a]pyrimidin-7-one] | ≥ 10 µM | ≥ 10 µM | – | –
CCCc1cc(=O)n2nc(C)c(-c3ccc(Cl)cc3)c2[nH]1 [Example 22, 3-(4-Chloro-phenyl)-2-methyl-5-propyl-4H-pyrazolo[1,5-a]pyrimidin-7-one] | ≥ 10 µM | ≥ 10 µM | – | –
COc1ccc(-c2c(C)nn3c(=O)cc(Cc4ccccc4)[nH]c23)cc1 [Example 23, 5-Benzyl-3-(4-methoxy-phenyl)-2-methyl-4H-pyrazolo[1,5-a]pyrimidin-7-one] | ≥ 10 µM | ≥ 10 µM | – | –
COCc1cc(=O)n2nc(Cc3ccccc3)c(-c3ccc(Cl)cc3)c2[nH]1 [Example 24, 2-Benzyl-3-(4-chloro-phenyl)-5-methoxymethyl-4H-pyrazolo[1,5-a]pyrimidin-7-one] | ≥ 10 µM | ≥ 10 µM | – | –
O=c1c2c([nH]c3c(-c4ccc(Cl)cc4)c(Cc4ccccc4)nn13)CCC2 [Example 26, 2-Benzyl-3-(4-chlorophenyl)-6,7-dihydro-4H-cyclopenta[d]pyrazolo[1,5-a]pyrimidin-8(5H)-one] | ≥ 10 µM | ≥ 10 µM | – | –
Cc1nn2c(=O)c3c([nH]c2c1-c1ccc(Cl)cc1)CCC3 [Example 27, 3-(4-Chlorophenyl)-2-methyl-6,7-dihydro-4H-cyclopenta[d]pyrazolo[1,5-a]pyrimidin-8(5H)-one] | ≥ 10 µM | ≥ 10 µM | – | –
Cc1cc(=O)n2nc(C)c(-c3ccc(Cl)cc3)c2[nH]1 [Example 28, 3-(4-Chloro-phenyl)-2,5-dimethyl-4H-pyrazolo[1,5-a]pyrimidin-7-one] | ≥ 10 µM | ≥ 10 µM | – | –
COCc1cc(=O)n2nc(-c3ccc(Cl)cc3)cc2[nH]1 [Example 29, 2-(4-Chloro-phenyl)-5-methoxymethyl-4H-pyrazolo[1,5-a]pyrimidin-7-one] | ≥ 10 µM | ≥ 10 µM | – | –
Cc1nn2c(=O)cc(-c3ccc4c(c3)OCO4)[nH]c2c1-c1ccccc1 [Example 43, 5-(Benzo[d][1,3]dioxol-5-yl)-2-methyl-3-phenylpyrazolo[1,5-a]pyrimidin-7(4H)-one] | ≤ 10 µM | – | ≤ 10 µM | –
O=c1cc(-c2ccc3c(c2)OCCO3)[nH]c2c(-c3ccccn3)cnn12 [Example 44, 5-(2,3-Dihydrobenzo[b][1,4]dioxin-6-yl)-3-(pyridin-2-yl)pyrazolo[1,5-a]pyrimidin-7(4H)-one] | ≤ 10 µM | – | ≤ 10 µM | –
O=c1cc(-c2ccc3c(c2)OCCO3)[nH]c2c(-c3cccnc3)cnn12 [Example 45, 5-(2,3-Dihydrobenzo[b][1,4]dioxin-6-yl)-3-(pyridin-3-yl)pyrazolo[1,5-a]pyrimidin-7(4H)-one] | ≤ 10 µM | – | ≤ 10 µM | –
Cc1nn2c(=O)cc(-c3ccc4c(c3)OCO4)[nH]c2c1-c1ccccn1 [Example 48, 5-(Benzo[d][1,3]dioxol-5-yl)-2-methyl-3-(pyridin-2-yl)pyrazolo[1,5-a]pyrimidin-7(4H)-one] | ≤ 10 µM | – | ≤ 10 µM | –
Cc1nn2c(=O)cc(-c3ccc4c(c3)OCCO4)[nH]c2c1-c1ccccn1 [Example 50, 5-(2,3-Dihydrobenzo[b][1,4]dioxin-6-yl)-2-methyl-3-(pyridin-2-yl)pyrazolo[1,5-a]pyrimidin-7(4H)-one] | ≤ 10 µM | – | ≤ 10 µM | –
Cc1nn2c(=O)cc(-c3ccc4c(c3)OCCO4)[nH]c2c1-c1cccnc1 [Example 51, 5-(2,3-Dihydrobenzo[b][1,4]dioxin-6-yl)-2-methyl-3-(pyridin-3-yl)pyrazolo[1,5-a]pyrimidin-7(4H)-one] | ≤ 10 µM | – | ≤ 10 µM | –
Cc1nn2c(=O)cc(-c3ccc4cc[nH]c4c3)[nH]c2c1Cc1ccccc1 [Example 74, 3-Benzyl-5-(1H-indol-6-yl)-2-methylpyrazolo[1,5-a]pyrimidin-7(4H)-one] | ≤ 10 µM | – | ≥ 10 µM | ≤ 10 µM
